In US11261186B2, “Biaryl derivative as GPR120 agonist” (LG CHEM, LTD., priority 2014, dated 2022):

Molecular target: T1, hGPR120 (Homo sapiens, UniProt Q5NUL3)
T1 construct: expressed in transfected cells; host or cells: CHO-K1
T1 sequence (Q5NUL3 1-361): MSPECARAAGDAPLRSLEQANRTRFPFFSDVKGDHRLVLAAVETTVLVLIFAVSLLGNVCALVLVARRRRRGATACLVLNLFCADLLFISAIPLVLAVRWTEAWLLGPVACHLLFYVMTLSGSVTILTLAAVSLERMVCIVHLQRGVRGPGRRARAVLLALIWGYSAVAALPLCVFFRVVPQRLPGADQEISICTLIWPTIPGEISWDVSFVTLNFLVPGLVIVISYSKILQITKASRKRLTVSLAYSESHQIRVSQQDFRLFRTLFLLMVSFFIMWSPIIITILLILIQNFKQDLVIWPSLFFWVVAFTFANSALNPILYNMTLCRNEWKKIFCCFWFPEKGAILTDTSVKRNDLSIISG
Experiment: Measurement of Activity of GPR120 Agonist (Cell-Based Assay), Calcium 5 dye fluorescence
Conditions: CHO-K1 cells expressing Ga16 and hGPR120
Method: CHO-K1 cells expressing Ga16 and hGPR120 were dispensed into each well of a 96-well plate (3×10^4 cells/100 μl/well) and then incubated in 5% CO2, 37° C. incubator for 18 hours. Each well was treated with 100 μl of Calcium 5 dye (Molecular Devices) solution including 2% DMSO and then incubated in 5% CO2, 37° C. incubator for 1 hour. Serially diluted GPR120 agonists were prepared to a final concentration of 0.5% DMSO in a 96-well plate. Each well was treated with 50 μl of the agonist compounds using Plexstation II, and then fluorescence was measured at Ex 485 nm and Em 525 nm.
Fluorescence increased by the serially diluted GPR120 agonists is calculated as a relative percent (%) value based on the fluorescence represented by the treatment of 1% DMSO only. […] The calculation of measurement was carried out by using statistical software (Prizm).
Activity is denoted based on the following criteria: […]

Row | SMILES | EC50 [nM]
1 | CC(C)Sc1ncccc1-c1ccc2nc(CCC(=O)O)ccc2c1 [Example 1, 3-[6-(2-isopropylsulfanyl-pyridin-3-yl)-quinolin-2-yl]-propionic acid] | 200 to 2000
2 | CC(C)Sc1ncccc1-c1ccc2cc(OCCCC(=O)O)ccc2c1 [Example 5, 4-[6-(2-isopropylsulfanyl-pyridin-3-yl)-naphthalen-2-yloxy]-butyric acid] | 200 to 2000
3 | CC(C)Sc1ncccc1-c1ccc2c(c1)CCC(CCC(=O)O)O2 (centres unmarked) [Example 7, 3-[6-(2-isopropylsulfanyl-pyridin-3-yl)-chroman-2-yl]-propionic acid] | < 200
4 | CC(C)Sc1cccc(-c2ccc3c(c2)CCC(CCC(=O)O)O3)n1 (centres unmarked) [Example 8, 3-[6-(6-isopropylsulfanyl-pyridin-2-yl)-chroman-2-yl]-propionic acid] | < 200
5 | O=C(O)CCC1CCc2cc(-c3cccnc3OC3CCCC3)ccc2O1 (centres unmarked) [Example 10, 3-[6-(2-cyclopentyloxy-pyridin-3-yl)-chroman-2-yl]-propionic acid] | < 200
6 | CN1c2ccc(-c3cccc(OC4CCCC4)n3)cc2CCC1CCC(=O)O (centres unmarked) [Example 12, 3-[6-(6-cyclopentyloxy-pyridin-2-yl)-1-methyl-1,2,3,4-tetrahydro-quinolin-2-yl]-propionic acid] | 200 to 2000
7 | CC(C)Oc1cccc(-c2cc(F)c(OCCCC(=O)O)c(F)c2)c1 [Example 18, 4-(3,5-difluoro-3′-isopropoxy-biphenyl-4-yloxy)-butyric acid] | < 200
8 | CCCOc1cccc(-c2cc(F)c(OCCCC(=O)O)c(F)c2)c1 [Example 19, 4-(3,5-difluoro-3′-propoxy-biphenyl-4-yloxy)-butyric acid] | < 200
9 | O=C(O)CCCOc1c(F)cc(-c2cccc(OCC3CC3)c2)cc1F [Example 20, 4-(3′-cyclopropylmethoxy-3,5-difluoro-biphenyl-4-yloxy)-butyric acid] | < 200
10 | O=C(O)CCCOc1c(F)cc(-c2cccc(OC3CCC3)c2)cc1F [Example 21, 4-(3′-cyclobutoxy-3,5-difluoro-biphenyl-4-yloxy)-butyric acid] | < 200
11 | CC1(C)Cc2cccc(-c3cc(F)c(OCCCC(=O)O)c(F)c3)c2O1 [Example 22, 4-[4-(2,2-dimethyl-2,3-dihydro-benzofuran-7-yl)-2,6-difluoro-phenoxy]-butyric acid] | < 200
12 | CC1(C)Oc2cccc(-c3cc(F)c(OCCCC(=O)O)c(F)c3)c2O1 [Example 23, 4-[4-(2,2-dimethyl-benzo[1,3]dioxol-4-yl)-2,6-difluoro-phenoxy]-butyric acid] | < 200
13 | O=C(O)CCCCc1ccc(-c2cccnc2SC2CCCC2)cc1 [Example 29, 5-[4-(2-cyclopentylsulfanyl-3-pyridyl)phenyl]pentanoic acid] | < 200
14 | O=C(O)CCCCc1c(F)cc(-c2cccc(OC3CCC3)n2)cc1F [Example 32, 5-[4-(6-cyclobutoxy-2-pyridyl)-2,6-difluoro-phenyl]pentanoic acid] | < 200
15 | O=C(O)CCCCc1c(F)cc(-c2cccc(OC3CCCC3)n2)cc1F [Example 33, 5-[4-(6-cyclopentoxy-2-pyridyl)-2,6-difluoro-phenyl]pentanoic acid] | < 200
16 | O=C(O)CCCCc1c(F)cc(-c2cccnc2SC2CCC2)cc1F [Example 35, 5-[4-(2-cyclobutylsulfanyl-3-pyridyl)-2,6-difluoro-phenyl]pentanoic acid] | < 200
17 | O=C(O)CCCCc1c(F)cc(-c2cccnc2OC2CCCC2)cc1F [Example 37, 5-[4-(2-cyclopentoxy-3-pyridyl)-2,6-difluoro-phenyl]pentanoic acid] | < 200
18 | CC(CCCC(=O)O)c1ccc(-c2cccnc2SC2CCC2)cc1 (centres unmarked) [Example 39, 5-[4-(2-cyclobutylsulfanyl-3-pyridyl)phenyl]hexanoic acid] | < 200
19 | CC(CCCC(=O)O)c1ccc(-c2cccc(OC3CCC3)n2)cc1 (centres unmarked) [Example 40, 5-[4-(6-cyclobutoxy-2-pyridyl)-phenyl]hexanoic acid] | < 200
20 | CC(CCCC(=O)O)c1c(F)cc(-c2cccc(OC3CCC3)n2)cc1F (centres unmarked) [Example 41, 5-[4-(6-cyclobutoxy-2-pyridyl)-2,6-difluoro-phenyl]hexanoic acid] | < 200

Results, then the molecule that gave them:

Row | EC50 [nM] | SMILES
21 | < 200 | CC(CCCC(=O)O)c1c(F)cc(-c2ccccc2NC2CCCC2)cc1F (racemic) [Example 47, 5-(2′-cyclopentylamino-3,5-difluoro-bisphenyl-4-yl)hexanoic acid]
22 | 200 to 2000 | CC(C)Sc1cccc(-c2ccc3nc(CCC(=O)O)ccc3c2)n1 [Example 2, 3-[6-(6-isopropylsulfanyl-pyridin-2-yl)-quinolin-2-yl]-propionic acid]
23 | 200 to 2000 | O=C(O)COc1ccc2cc(-c3cccc(OC4CCCC4)n3)ccc2c1 [Example 3, [6-(6-cyclopentyloxy-pyridin-2-yl)-naphthalen-2-yloxy]-acetic acid]
24 | 2000 to 20000 | O=C(O)COc1ccc2cc(-c3cccnc3OC3CCCC3)ccc2c1 [Example 4, [6-(2-cyclopentyloxy-pyridin-3-yl)-naphthalen-2-yloxy]-acetic acid]
25 | < 200 | O=C(O)CCC1CCc2cc(-c3cccc(OC4CCCC4)n3)ccc2O1 (centres unmarked) [Example 9, 3-[6-(6-cyclopentyloxy-pyridin-2-yl)-chroman-2-yl]-propionic acid]
26 | 200 to 2000 | O=C(O)CCC1CCc2cc(-c3cccc(OC4CCCC4)n3)ccc2N1 (centres unmarked) [Example 11, 3-[6-(6-cyclopentyloxy-pyridin-2-yl)-1,2,3,4-tetrahydro-quinolin-2-yl]-propionic acid]
27 | 2000 to 20000 | O=C(O)CCCOc1c(F)cc(-c2cccc(OCc3ccccc3)c2)cc1F [Example 17, 4-(3′-benzyloxy-3,5-difluoro-biphenyl-4-yloxy)-butyric acid]
28 | 200 to 2000 | Fc1cc(-c2cccnc2SC2CCC2)cc(F)c1OCCCc1nnn[nH]1 [Example 25, 2-cyclobutylsulfanyl-3-{3,5-difluoro-4-[3-(1H-tetrazol-5-yl)propoxy]phenyl}pyridin]
29 | 200 to 2000 | c1cnc(SC2CCC2)c(-c2ccc(CCCc3nnn[nH]3)cc2)c1 [Example 26, 2-cyclobutylsulfanyl-3-{4-[3-(1H-tetrazol-5-yl)propyl]phenyl}pyridine]
30 | < 200 | O=C(O)CCCCc1ccc(-c2cccnc2SC2CCC2)cc1 [Example 27, 5-[4-(2-cyclobutylsulfanyl-3-pyridyl)phenyl]pentanoic acid]
31 | < 200 | O=C(O)CCCCc1ccc(-c2cccc(SC3CCCC3)n2)cc1 [Example 28, 5-[4-(6-cyclopentylsulfanyl-2-pyridyl)phenyl]pentanoic acid]
32 | < 200 | CCCSc1ncccc1-c1cc(F)c(CCCCC(=O)O)c(F)c1 [Example 31, 5-[2,6-difluoro-4-(2-propylsulfanyl-3-pyridyl)phenyl]pentanoic acid]
33 | < 200 | O=C(O)CCCCc1c(F)cc(-c2cccc3c2OC(F)(F)O3)cc1F [Example 34, 5-[4-(2,2-difluoro-benzo[1,3]dioxol-4-yl)-2,6-difluoro-phenyl]pentanoic acid]
34 | < 200 | O=C(O)CCCCc1c(F)cc(-c2cccnc2SC2CCCC2)cc1F [Example 36, 5-[4-(2-cyclopentylsulfanyl-3-pyridyl)-2,6-difluoro-phenyl]pentanoic acid]
35 | 200 to 2000 | O=C(O)COCCc1c(F)cc(-c2cccnc2SC2CCC2)cc1F [Example 38, {2-[4-(2-cyclobutylsulfanyl-3-pyridyl)-2,6-difluoro-phenyl]ethoxy}acetic acid]
